# Test results taken from ChEMBL document CHEMBL3826911, “Rational design and synthesis of novel anti-prostate cancer agents bearing a 3,5-bis-trifluoromethylphenyl moiety” (Bioorg Med Chem Lett, 2016).
# Legend:
# CWR22R = assay: Antiproliferative activity against human 22Rv1 cells assessed as reduction in cell viability after 96 hrs by propidium iodide staining based fluorescence assay; assay type: functional; settings: Homo sapiens, 22Rv1, 96 h; read-out: IC50
# Androgen receptor = biological target: T1, Androgen receptor (Homo sapiens, UniProt P10275); assay type: cell-based, GripTite-293
# T1 sequence (P10275 whole entry): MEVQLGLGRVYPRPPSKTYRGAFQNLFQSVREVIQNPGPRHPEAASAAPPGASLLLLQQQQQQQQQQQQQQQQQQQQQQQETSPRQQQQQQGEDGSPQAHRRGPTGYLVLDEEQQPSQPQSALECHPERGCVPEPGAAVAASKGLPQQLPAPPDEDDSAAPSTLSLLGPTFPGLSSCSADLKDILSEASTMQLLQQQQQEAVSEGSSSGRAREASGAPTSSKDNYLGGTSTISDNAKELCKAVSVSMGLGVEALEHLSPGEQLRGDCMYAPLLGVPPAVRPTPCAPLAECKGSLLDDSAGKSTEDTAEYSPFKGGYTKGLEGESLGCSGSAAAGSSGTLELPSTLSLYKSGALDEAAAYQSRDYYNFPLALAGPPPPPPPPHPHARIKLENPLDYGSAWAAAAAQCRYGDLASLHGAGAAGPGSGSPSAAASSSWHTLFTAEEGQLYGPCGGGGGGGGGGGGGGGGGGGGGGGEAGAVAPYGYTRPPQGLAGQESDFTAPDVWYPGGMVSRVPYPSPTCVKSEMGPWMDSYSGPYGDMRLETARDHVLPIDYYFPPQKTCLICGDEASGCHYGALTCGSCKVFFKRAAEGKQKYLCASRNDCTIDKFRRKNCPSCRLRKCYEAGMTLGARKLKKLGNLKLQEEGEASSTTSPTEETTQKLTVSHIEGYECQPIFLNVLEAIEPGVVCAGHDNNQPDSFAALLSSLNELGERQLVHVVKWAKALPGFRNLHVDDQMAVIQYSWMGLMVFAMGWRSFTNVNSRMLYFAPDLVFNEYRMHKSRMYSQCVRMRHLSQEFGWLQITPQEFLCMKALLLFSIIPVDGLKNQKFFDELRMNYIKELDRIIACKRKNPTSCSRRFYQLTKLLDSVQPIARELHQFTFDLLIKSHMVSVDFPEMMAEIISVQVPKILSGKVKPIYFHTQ
# Description: Antagonist activity at GAL4 DBD-fused androgen receptor LBD (unknown origin) transfected in UAS-bla GripTite 293 cells assessed as inhibition of R1881-induced receptor activation after 16 to 24 hrs by beta-lactamase reporter gene assay
# [1] = Antiproliferative activity against human VCaP cells assessed as reduction in cell viability after 96 hrs by propidium iodide staining based fluorescence assay; assay type: functional; settings: Homo sapiens, VCaP, 96 h; read-out: IC50
# LNCaP = assay: Antiproliferative activity against human LNCAP cells assessed as reduction in cell viability after 96 hrs by propidium iodide staining based fluorescence assay; assay type: functional; settings: Homo sapiens, LNCaP, 96 h; read-out: IC50
# [2] = Antiproliferative activity against human DU145 cells assessed as reduction in cell viability after 96 hrs by propidium iodide staining based fluorescence assay; assay type: functional, DU-145; settings: Homo sapiens, DU-145, 96 h; read-out: IC50
# [3] = biological target: T2, Androgen receptor (Homo sapiens) (UniProt P10275); settings: GripTite-293, at 10 µM
# T2 sequence (whole entry): T1 sequence (P10275 whole entry)
# HepG2 = assay: Cytotoxicity against human HepG2 cells assessed as cell viability after 72 hrs by MTT assay; assay type: functional, cell-based
# [4] = Half life in human liver microsomes at 3 uM in presence of NADPH by LC-MS/MS analysis; assay type: ADME
# [5] = Protein binding in human plasma by equilibrium dialysis method; assay type: ADME, cell-free; settings: read-out: PPB (converted)
# hERG (KCNH2) = hERG (KCNH2) (Homo sapiens, UniProt Q12809); assay: Inhibition of human ERG transfected in CHO cells assessed as blockade of tail current at 25 uM by patch clamp assay; assay type: cell-based; settings: CHO cells transfected with human ERG
# Albumin = Albumin (Homo sapiens, UniProt P02768); assay: Binding affinity to human serum albumin at 5 uM by equilibrium dialysis based LC-MS/MS analysis; assay type: ADME; settings: read-out: PB (converted)
# Liver microsome = assay: Metabolic stability in human liver microsomes at 3 uM in presence of NADPH by LC-MS/MS analysis; assay type: ADME
# [6] = Intrinsic clearance in human liver microsomes assessed per mg of protein at 3 uM in presence of NADPH by LC-MS/MS analysis; assay type: ADME; settings: read-out: CLH
# Sequence of Albumin (P02768 whole entry): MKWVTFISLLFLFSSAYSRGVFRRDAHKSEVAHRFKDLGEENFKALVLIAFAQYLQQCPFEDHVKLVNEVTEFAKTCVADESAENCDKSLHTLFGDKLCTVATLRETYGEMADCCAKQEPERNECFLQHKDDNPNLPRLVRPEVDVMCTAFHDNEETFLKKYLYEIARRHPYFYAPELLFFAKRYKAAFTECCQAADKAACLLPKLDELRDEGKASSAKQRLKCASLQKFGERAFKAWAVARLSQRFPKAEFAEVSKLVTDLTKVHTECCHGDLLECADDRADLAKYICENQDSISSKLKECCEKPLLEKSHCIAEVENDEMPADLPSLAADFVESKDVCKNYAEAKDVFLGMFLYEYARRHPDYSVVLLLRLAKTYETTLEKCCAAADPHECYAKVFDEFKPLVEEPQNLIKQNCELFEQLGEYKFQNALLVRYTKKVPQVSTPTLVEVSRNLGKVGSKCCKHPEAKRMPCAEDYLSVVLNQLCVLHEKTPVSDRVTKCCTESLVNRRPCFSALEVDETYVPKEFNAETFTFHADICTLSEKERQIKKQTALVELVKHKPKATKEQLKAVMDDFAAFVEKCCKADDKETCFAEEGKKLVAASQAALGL
# Sequence of hERG (KCNH2) (Q12809 whole entry): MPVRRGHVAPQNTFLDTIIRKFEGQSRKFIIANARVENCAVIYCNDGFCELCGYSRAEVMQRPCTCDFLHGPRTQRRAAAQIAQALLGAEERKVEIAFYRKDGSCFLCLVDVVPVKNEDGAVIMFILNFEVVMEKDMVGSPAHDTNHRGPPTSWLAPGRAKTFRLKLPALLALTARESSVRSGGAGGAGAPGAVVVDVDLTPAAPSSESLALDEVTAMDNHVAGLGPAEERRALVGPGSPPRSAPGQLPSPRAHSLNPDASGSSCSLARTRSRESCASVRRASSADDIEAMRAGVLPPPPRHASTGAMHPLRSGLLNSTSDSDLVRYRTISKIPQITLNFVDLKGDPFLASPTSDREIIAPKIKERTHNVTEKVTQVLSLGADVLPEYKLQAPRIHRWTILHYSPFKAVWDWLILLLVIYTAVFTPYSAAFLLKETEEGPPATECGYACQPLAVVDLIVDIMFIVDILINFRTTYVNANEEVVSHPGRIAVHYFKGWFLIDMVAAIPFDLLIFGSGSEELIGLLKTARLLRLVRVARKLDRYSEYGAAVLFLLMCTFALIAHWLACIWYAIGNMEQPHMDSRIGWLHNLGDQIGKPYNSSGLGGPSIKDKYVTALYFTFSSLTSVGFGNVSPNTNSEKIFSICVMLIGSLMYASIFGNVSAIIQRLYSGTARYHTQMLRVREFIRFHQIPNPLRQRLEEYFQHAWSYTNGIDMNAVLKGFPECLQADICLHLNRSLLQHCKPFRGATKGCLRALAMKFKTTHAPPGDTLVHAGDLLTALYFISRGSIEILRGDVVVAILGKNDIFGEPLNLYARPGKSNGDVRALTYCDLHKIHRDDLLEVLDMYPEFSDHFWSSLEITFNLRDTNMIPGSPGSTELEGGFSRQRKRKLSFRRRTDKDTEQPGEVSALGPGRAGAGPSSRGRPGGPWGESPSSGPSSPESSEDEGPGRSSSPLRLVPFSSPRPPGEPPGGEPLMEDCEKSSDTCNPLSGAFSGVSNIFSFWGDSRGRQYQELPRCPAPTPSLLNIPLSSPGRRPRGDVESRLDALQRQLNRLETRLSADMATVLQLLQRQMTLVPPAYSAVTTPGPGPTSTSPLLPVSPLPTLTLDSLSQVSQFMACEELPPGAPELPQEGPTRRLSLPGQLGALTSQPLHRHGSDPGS
Structure (SMILES),IC50 (CWR22R) [µM],IC50 (Androgen receptor) [µM],IC50 [1] [µM],IC50 (LNCaP) [µM],IC50 [2] [µM],inhibition [3] [%],Activity (HepG2),half-life at 3 µM [4] [h],fraction unbound [5],"AC50 (HepG2; HepG2, 72 h) [µM]",inhibition at 25 µM (hERG (KCNH2)) [%],fraction unbound at 5 µM (Albumin),Stability (Liver microsome),"minimal effective concentration (HepG2; HepG2, 72 h, read-out: MEC) [µM]",microsomal CLint at 3 µM [6] [µL/min/mg]
CC(O)(CSc1cc(C(F)(F)F)cc(C(F)(F)F)c1)C(=O)Nc1ccc([N+](=O)[O-])c(C(F)(F)F)c1 (stereo not given),1.5,0.71,1.53,1.5,2.78,90,Dose-dependent effect,,,,,,,,
C[C@](O)(CS(=O)(=O)c1ccc(F)cc1)C(=O)Nc1ccc(C#N)c(C(F)(F)F)c1 [(R)-BICALUTAMIDE],46.2,,51.6,,45.4,,,3.57,0.04,54.3,,,,,
CC(O)(CS(=O)(=O)c1ccccc1OC(F)(F)F)C(=O)Nc1cc(C(F)(F)F)cc(C(F)(F)F)c1 (stereo not given),8.99,,9.95,8.02,12.9,,Dose-dependent effect,4.83,,,13.4,0.217,,,
C[C@](O)(CS(=O)(=O)c1cc(C(F)(F)F)cc(C(F)(F)F)c1)C(=O)Nc1ccc(C#N)c(C(F)(F)F)c1,2.5,,4.11,1.99,6.36,,Dose-dependent effect,,,,29.3,0.001,Stable,,
CC(O)(CS(=O)(=O)c1cc(C(F)(F)F)cc(C(F)(F)F)c1)C(=O)Nc1ccc([N+](=O)[O-])c(C(F)(F)F)c1 (stereo not given),2.15,3.1,3.3,2.1,5.26,93,,9.45,,9.01,,,,3.6,
COc1ccc2c(c1)[C@]13CCCC[C@@H]1[C@H](C2)N(C)CC3 [DEXTROMETHORPHAN],,,,,,,,1.05,,,,,,,21.9
